The values that follow come from publication PMC13168289, “Potent acridone antimalarial against all three life stages of Plasmodium” (Nature Communications, 2026).

SMILES strings stand for the structures. Several values for one entry are separate records, joined by “and”; a condition that tells them apart may be missing. Equal entries are not always repeated. Where two headings read alike, the source gives them in different places.

For data set [1] the following is noted: cited from earlier work.
The nature of data set [2]: 7-day repeat dose toxicology study. Format: in vivo, Sprague Dawley rats. To be noted: 25, 100, 400 mg/kg daily oral for 7 days. Here is the method: In vivo toxicology and TK studies in rats were performed at SRI International, using the well-established methods[83]–[85]. Rats were housed in microisolator cages with hardwood chip bedding (Sani-Chips; Envigo Teklad) and maintained on a 12 h light/dark cycle. Environmental conditions were controlled at 20–26 °C (68–79 °F) with 30–70% relative humidity. […] Male and female Sprague Dawley outbred rats were randomly assigned to treatment and control groups using a simple randomization procedure to ensure a balanced distribution of baseline weights across all cohorts. […] For TK studies, blood was collected from animals at 6 time points post dose on Day 1 (0.5, 1, 2, 4, 8, and 24 h) and on Day 7 (0.5, 2, 8, 24, 48, and 96 h). Drug levels were determined in collected plasma samples using bioanalytical method developed at SRI. The plasma drug level data were analyzed using Phoenix WinNonlin (version 8.3) software to perform noncompartmental data analysis.

The test system of data set [3] is fresh P. falciparum isolates. In words: Ex vivo 72-h growth inhibition assay with SYBR Green detection. Format: cell-based, Plasmodium falciparum. Here is the method:
Isolates were collected from patients with uncomplicated falciparum malaria in Bobo-Dioulasso, Burkina Faso and Tororo, Uganda. For parasite culture, parasitemia was identified with Giemsa-stained thin films using a light microscope. […] Isolates were stored at 4 °C and assayed within 24 h of collection. […] Study compounds were dissolved in DMSO as 10 mM stocks and stored at -20 °C. Drugs were serially diluted, including drug-free and parasite-free control wells, with concentrations optimized to capture full dose-response curves. Cultures were diluted with uninfected O^+ erythrocytes to achieve 0.2% parasitemia and 2% hematocrit. After 72 h, wells were resuspended, and culture from each well was transferred to 96-well plates containing SYBR Green lysis buffer and mixed. Plates were incubated for 1 h in the dark at room temperature, and fluorescence was measured with a plate reader (485 nm excitation and 530 nm emission).

For the next data set, the system named is blood-stage P. yoelii. In words: single-dose cure murine model, oral. Format: in vivo, P. yoelii in CF1 mice. From the text:
Animals were housed at the VAPORHCS in Thoren Maxi-Miser microisolator cages (78 sq. in. floor space) with a maximum density of five females or four males per cage. Cages were maintained on a 12-h light/dark cycle and provided with autoclaved nesting materials (nestlets) for environmental enrichment. All mice had ad libitum access to food and water. Four- to five-week-old female and male outbred CF1 mice (Charles River Laboratories, Raleigh, NC, USA) were randomly assigned to treatment and control groups using a simple randomization procedure (e.g., computer-generated random numbers) to ensure balanced distribution of baseline body weights and starting parasitemia levels across all cohorts. Groups of four mice (n = 4, mean body weight of each group was ~30 g) were infected intravenously with 3.5 × 10^4 P. yoelii (Kenya strain, MRA-428) from a donor animal. Drug administration commenced the day after the animals were inoculated (Day 1). The test drug or the drug combination was dissolved in PEG-400 and administered by oral gavage once daily for 4 successive days in the 4-day suppression model, but only once on Day 1 in the single-dose cure model. Blood was collected via the tail vein with the aid of a syringe needle on Day 5 and then at weekly intervals through Day 28. Blood films were Giemsa-stained and examined microscopically to determine the level of parasitemia. All mice were observed daily to assess clinical signs. Animals with observable parasitemia following the experiments were euthanized; animals cleared of parasitemia from their bloodstream were observed daily with assessment of parasitemia performed weekly until Day 28, at which point, the animal(s) were scored as cured of the infection and then humanely euthanized. All treated mice with a negative smear on Day 28 were considered cured (100% protection). […]

For data set [4], the system named is P. falciparum Dd2, DR1 and DR4. The data set can be described thus: SYBR Green 72 h drug susceptibility assay against ART-resistant clones. The class given is cell-based, Plasmodium falciparum. Here is the method:
Drug susceptibility assay against ART-resistant P. falciparum clones was performed using a SYBR Green-based assay[44],[74]. Synchronized ring stage parasites were cultured for 72 h in the presence of the test drug. The assay was performed in 96-well plates at 2% hematocrit and 0.5% starting parasitemia. Each experiment was conducted in triplicate and repeated with three biological replicates. Parasite growth at 72 h was quantified via SYBR Green I staining. The obtained counts were plotted against the logarithm of the compound concentration, and a curve was fitted with non-linear regression (sigmoidal dose-response/variable slope equation) to determine IC50 (half-maximal inhibitory concentration) values. The data was analyzed using GraphPad Prism software 8.0.

Data set [5] relates to P. falciparum NF54 oocyst development in mosquitoes. In words: standard membrane feeding assay (SMFA). Format: in vivo, P. falciparum in Anopheles stephensi. The conditions noted are these: drug in blood meal. As for the experimental part: The SMFA assay was performed using P. falciparum NF54 gametocytes produced in vitro[35]. P. falciparum NF54 gametocytes were grown in human blood cultured in RPMI 1640 GlutaMax medium (Gibco) supplemented with 25 mM HEPES, hypoxanthine, and human serum. De-identified human blood and serum were obtained from the Australian Red Cross Blood Service. Mature (stage V) gametocytes were quantified in Giemsa-stained blood smears. Immediately prior to infection, a feeding mixture comprising 45% human serum and 55% human blood containing 0.15% stage V gametocytes and the desired concentration of drug or vehicle control, was prepared and maintained at 37 °C. Adult female Anopheles stephensi (MR4) mosquitoes reared under the standard insectary conditions[79] were placed in mesh-topped cups and allowed to feed on the gametocyte mixtures in prewarmed glass feeders wrapped with parafilm. […] Mosquito midguts were dissected 7 days after infection, stained in 0.2% mercurochrome, and oocysts were counted using a light microscope.

For the molecule `O=C1C(O)=C([C@H]2CC[C@H](c3ccc(Cl)cc3)CC2)C(=O)c2ccccc21` [ATV, atovaquone], in data set [1] (healthy mice, ref PMID: 23292347), the T1/2 entry was “about 13 h”. Further, the t1/2 in data set [1] (mice plasma) is reported as ~ 13 h.
As to `O=c1c2ccc(Oc3ccc(OC(F)(F)F)cc3)cc2[nH]c2cc(Cl)cc(F)c12` [T111], the tolerability result in data set [2] is “well tolerated, albeit with minor clinical signs”. Also, the IC50 (commonly the concentration at which inhibition is half-maximal) in data set [3] (Burkina Faso isolates, n = 78, read-out: IC50 range) was 0.0013 to 0.49 nM; in data set [3] (Burkina Faso isolates, n = 78, read-out: median IC50) it was 0.062 nM; in data set [3] (Uganda isolates, n = 81, read-out: IC50 range) it was 0.0038 to 0.66 nM; in data set [3] (Uganda isolates, n = 81, read-out: median IC50) it was 0.049 nM; in data set [4] (DR1 (ART-R)), 0.11 nM; in data set [4] (Dd2) it was 0.028 nM. For the same molecule, the “% survival through Day 28” value in the data set on blood-stage P. yoelii (TQ 0 + T111 20 mg/kg) was determined as 0%; in the data set on blood-stage P. yoelii (TQ 0 + T111 30 mg/kg) it was 0%; in the data set on blood-stage P. yoelii (TQ 0 + T111 40 mg/kg) it was 25%; in the data set with blood-stage P. yoelii (TQ 0 + T111 50 mg/kg), 100%. The “number of mice cured on Day 28” value was 0/4 with blood-stage P. yoelii (TQ 0 + T111 20 mg/kg); 0/4 with blood-stage P. yoelii (TQ 0 + T111 30 mg/kg); “One of four mice and 1/4” in the data set on blood-stage P. yoelii (TQ 0 + T111 40 mg/kg, 40 mg/kg); “all of four mice and single-dose cure in all treated mice and 4/4” with blood-stage P. yoelii (TQ 0 + T111 50 mg/kg, 50 mg/kg). The “parasitemia burden on Day 5” value in the data set on blood-stage P. yoelii (TQ 0 + T111 20 mg/kg), in the data set with blood-stage P. yoelii (TQ 0 + T111 30 mg/kg), in the data set with blood-stage P. yoelii (TQ 0 + T111 40 mg/kg) and with blood-stage P. yoelii (TQ 0 + T111 50 mg/kg) was 0 in each case. Besides, the “concentration that eliminated oocyst formation” value in data set [5] is 4.0 ng/mL and 9.5 nM.
